According to patent publication US8314113B2, “Substituted dihydroquinazolines II” (Aicuris GmbH & Co. KG, priority 2003, dated 2012):
Counter-ions that a name gives are not always drawn. Like-named read-outs stand apart in the source and are kept apart here.

Legend:
[1] = Cytotoxicity on NHDF cells in the anti-HCMV cytopathogenicity test; assay type: cell-based; conditions: NHDF cells (human prepuce fibroblasts), visual assessment, concentration at which no visible cytostatic effects are evident
Description: (§1) Anti-HCMV (Anti-Human Cytomegalovirus) Cytopathogenicity Tests The test compounds are employed as 50 millimolar (mM) solutions in dimethyl sulphoxide (DMSO). Ganciclovir, Foscarnet and Cidofovir are used as reference compounds. After addition of in each case 2 μl of the 50, 5, 0.5 and 0.05 mM DMSO stock solutions to 98 μl portions of cell culture medium in row […] for duplicate determinations, 1:2 dilutions are carried out with 50 μl portions of medium up to row 11 of the 96-well plate. The wells in rows 1 and 12 each contain 50 μl of medium. Then 150 μl portions of a suspension of 1×10^4 cells (human prepuce fibroblasts [NHDF]) are pipetted into each of the wells (row 1=cell control) and, in rows 2-12, a mixture of HCMV-infected and uninfected NHDF cells (M.O.I.=0.001-0.002), i.e. 1-2 infected cells-per 1000 uninfected cells. Row 12 (without substance) serves as virus control. The final test concentrations are 250-0.0005 μM. The plates are incubated at 37° C./5% CO2 for 6 days, i.e. until all the cells are infected in the virus controls (100% cytopathogenic effect [CPE]). The wells are then fixed and stained by adding a mixture of formalin and Giemsa's dye (30 minutes), washed with double-distilled water and dried in a drying cabinet at 50° C. The plates are then assessed visually using an overhead microscope (Plaque Multiplier from Technomara). The following data can be acquired from the test plates: CC50 (NHDF)=substance concentration in μM at which no visible cytostatic effects on the cells are evident by comparison with the untreated cell control;

HCMV = test: Anti-HCMV cytopathogenicity test (CPE inhibition); assay type: cell-based, human cytomegalovirus; conditions: for EC50: read-out: HCMV EC50; for SI HCMV (selectivity index = CC50 (NHDF)/EC50 (HCMV)): ratio CC50 (NHDF)/EC50 (HCMV)
Description: as §1, with “plates: EC50 (HCMV)=substance” for “plates: CC50 (NHDF)=substance”, “μM” for “μM at”, “which inhibits” for “which no visible cytostatic effects on”, “the CPE (cytopathic effect)” for “the cells are evident”, “by 50% compared” for “by comparison”, “untreated virus” for “untreated cell”

[2] = Human betaherpesvirus 5, NHDF, 144 h
[3] = Human betaherpesvirus 5, 144 h, HCMV-infected NHDF cells, M.O.I. 0.001-0.002, 6 days, 50% inhibition of CPE

Compound | CC50 at 6 days [1] | EC50 (HCMV; [2]) | SI HCMV (selectivity index = CC50 (NHDF)/EC50 (HCMV)) (HCMV) | EC50 (HCMV; [3])
COc1ccc(C(F)(F)F)cc1N1C(C2CCN(c3ccc(F)c(C)c3)CC2)=Nc2c(F)cccc2C1CC(=O)O (stereo not drawn) [Example 2, {8-Fluoro-2-[1-(4-fluoro-3-methylphenyl)piperidin-4-yl]-3-[2-methoxy-5-(trifluoromethyl)phenyl]-3,4-dihydroquinazolin-4-yl}acetic acid hydrochloride] | 31 µM | 0.04 µM | 775 | –
COc1ccc(C(F)(F)F)cc1N1C(C2CCN(c3ccc(F)c(C)c3)CC2)=Nc2c(F)cccc2C1CC(=O)O (racemic) [Example 1, {8-Fluoro-2-[1-(4-fluoro-3-methylphenyl)piperidin-4-yl]-3-[2-methoxy-5-(trifluoromethyl)phenyl]-3,4-dihydroquinazolin-4-yl}acetic acid hydrochloride] | 24 µM | 0.03 µM | 800 | –
COc1ccc(C(F)(F)F)cc1N1C(C2CCN(c3cccc(C)c3)CC2)=Nc2c(F)cccc2C1CC(=O)O (stereo not drawn) [Example 3, {8-Fluoro-3-[2-methoxy-5-(trifluoromethyl)phenyl]-2-[1-(3-methylphenyl)piperidin-4-yl]-3,4dihydroquinazolin-4-yl}acetic acid] | 31 µM | – | 310 | 0.1 µM
COc1ccc(C(F)(F)F)cc1N1C(C2CCN(c3ccc(F)cc3)CC2)=Nc2c(F)cccc2C1CC(=O)O (stereo not drawn) [Example 4, {8-Fluoro-2-[1-(4-fluorophenyl)piperidin-4-yl]-3-[2-methoxy-5-(trifluoromethyl)-phenyl]-3,4-dihydroquinazolin-4-yl}acetic acid] | 36 µM | – | 237 | 0.15 µM
